From ChEMBL document CHEMBL1201862, “PubChem BioAssay data set” (2004)
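Where inhibition never reached the appropriate level, the endpoint shown equals the highest concentration tested. Otherwise, values were interpolated linearly from a five-concentration, 48-hour dose response in 96-well plates. GI50 marks 50% less growth.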 Calls of active or inactive are those of the source. No stated cut-off is given here; in the data, active = GI50 up to about 1.1 µM and inactive = higher.

Experiments:
Experiment in all cases: growth of human tumour cells (NCI), 48 h
786-0 = tested on: 786-0
A498 = tested on: A498
A549 = tested on: A549
ACHN = tested on: ACHN
CAKI-1 = tested on: CAKI-1
CCRF-CEM = tested on: CCRF-CEM
DLD-1 = tested on: DLD-1
DMS-114 = tested on: DMS-114
DMS-273 = tested on: DMS-273
EKVX = tested on: EKVX
HCC 2998 = tested on: HCC 2998
HCT-116 = tested on: HCT-116
HCT-15 = tested on: HCT-15
HL-60 = tested on: HL-60
HOP-62 = tested on: HOP-62
HOP-92 = tested on: HOP-92
HT-29 = tested on: HT-29
IGROV-1 = tested on: IGROV-1
K562 = tested on: K562
KM-20L2 = tested on: KM-20L2
KM12 = tested on: KM12
LOX IMVI = tested on: LOX IMVI
M14 = tested on: M14
M19-MEL = tested on: M19-MEL
MOLT-4 = tested on: MOLT-4
Malme-3M = tested on: Malme-3M
NCI-H226 = tested on: NCI-H226
NCI-H23 = tested on: NCI-H23
NCI-H460 = tested on: NCI-H460
NCI-H522 = tested on: NCI-H522
OVCAR-3 = tested on: OVCAR-3
OVCAR-4 = tested on: OVCAR-4
OVCAR-5 = tested on: OVCAR-5
OVCAR-8 = tested on: OVCAR-8
RPMI-8226 = tested on: RPMI-8226
RXF 393 = tested on: RXF 393
SF-268 = tested on: SF-268
SF-295 = tested on: SF-295
SF-539 = tested on: SF-539
SK-MEL-28 = tested on: SK-MEL-28
SK-MEL-2 = tested on: SK-MEL-2
SK-MEL-5 = tested on: SK-MEL-5
SK-OV-3 = tested on: SK-OV-3
SN12C = tested on: SN12C
SNB-19 = tested on: SNB-19
SNB-75 = tested on: SNB-75
SNB-78 = tested on: SNB-78
SW-620 = tested on: SW-620
TK-10 = tested on: TK-10
U-251 = tested on: U-251
UACC-257 = tested on: UACC-257
UACC-62 = tested on: UACC-62
UO-31 = tested on: UO-31
XF498 = tested on: XF498
COLO 205 = tested on: COLO 205
HOP-18 = tested on: HOP-18
LXFL 529 = tested on: LXFL 529
SR = tested on: SR

C[n+]1c2ccccc2c(/C=N\NS(=O)(=O)c2ccc(Cl)cc2)c2ccccc21 was tested, and the GI50 (786-0) was 51.9 µM (inactive), the GI50 (A498) was 35.6 µM (inactive) and the GI50 (A549) was 23 µM (inactive). The GI50 (ACHN) was 68.2 µM (inactive), the GI50 (CAKI-1) was 29.7 µM (inactive) and the GI50 (CCRF-CEM) was 15.1 µM (inactive). The GI50 (DLD-1) was 67.5 µM (inactive), the GI50 (DMS-114) was 28.3 µM (inactive) and the GI50 (DMS-273) was 41.8 µM (inactive). The GI50 (EKVX) was > 100 µM (inactive), the GI50 (HCC 2998) was > 100 µM (inactive) and the GI50 (HCT-116) was 33.7 µM (inactive). The GI50 (HCT-15) was 35.9 µM, the GI50 (HL-60) was 30.1 µM (inactive) and the GI50 (HOP-62) was > 100 µM (inactive). The GI50 (HOP-92) was 48.8 µM (inactive), the GI50 (HT-29) was 34 µM (inactive) and the GI50 (IGROV-1) was 43 µM (inactive). The GI50 (K562) was 17.7 µM (inactive), the GI50 (KM-20L2) was 42.4 µM (inactive) and the GI50 (KM12) was 44.2 µM (inactive). For the same compound, the GI50 (LOX IMVI) was 16.8 µM (inactive), the GI50 (M14) was 56.4 µM (inactive) and the GI50 (M19-MEL) was 81.7 µM (inactive). For the same compound, the GI50 (MOLT-4) was 32.9 µM (inactive), the GI50 (Malme-3M) was > 100 µM (inactive) and the GI50 (NCI-H226) was 68.2 µM (inactive). For the same compound, the GI50 (NCI-H23) was > 100 µM (inactive), the GI50 (NCI-H460) was 32.4 µM (inactive) and the GI50 (NCI-H522) was 46.8 µM (inactive). For the same compound, the GI50 (OVCAR-3) was 41.8 µM (inactive), the GI50 (OVCAR-4) was > 100 µM (inactive) and the GI50 (OVCAR-5) was 97.7 µM (inactive). For the same compound, the GI50 (OVCAR-8) was 40.3 µM (inactive), the GI50 (RPMI-8226) was 42.6 µM (inactive) and the GI50 (RXF 393) was 57.3 µM (inactive). The GI50 (SF-268) was 69.2 µM (inactive), the GI50 (SF-295) was 59.4 µM (inactive) and the GI50 (SF-539) was 87.5 µM (inactive). For the same compound, the GI50 (SK-MEL-28) was 94.8 µM (inactive), the GI50 (SK-MEL-2) was 46.7 µM (inactive) and the GI50 (SK-MEL-5) was 42 µM (inactive). The GI50 (SK-OV-3) was > 100 µM (inactive), the GI50 (SN12C) was 56.8 µM (inactive) and the GI50 (SNB-19) was 59.2 µM (inactive). The GI50 (SNB-75) was 39.4 µM (inactive), the GI50 (SNB-78) was > 100 µM (inactive) and the GI50 (SW-620) was 39.5 µM (inactive). For the same compound, the GI50 (TK-10) was 74 µM (inactive), the GI50 (U-251) was 45.8 µM (inactive) and the GI50 (UACC-257) was > 100 µM (inactive). The GI50 (UACC-62) was 37.8 µM (inactive), the GI50 (UO-31) was 27.3 µM (inactive) and the GI50 (XF498) was 27.3 µM (inactive).
With CC(N)CC(=O)O (stereo unspecified) the GI50 (786-0) was > 5000 µM (inactive), the GI50 (A498) was > 5000 µM (inactive) and the GI50 (A549) was 2850 µM (inactive). For the same compound, the GI50 (ACHN) was > 5000 µM (inactive), the GI50 (CCRF-CEM) was > 5000 µM (inactive) and the GI50 (COLO 205) was > 5000 µM (inactive). For the same compound, the GI50 (DLD-1) was > 5000 µM (inactive), the GI50 (DMS-114) was > 5000 µM (inactive) and the GI50 (DMS-273) was > 5000 µM (inactive). For the same compound, the GI50 (EKVX) was > 5000 µM (inactive), the GI50 (HCC 2998) was > 5000 µM (inactive) and the GI50 (HCT-116) was > 5000 µM (inactive). For the same compound, the GI50 (HCT-15) was > 5000 µM, the GI50 (HL-60) was > 5000 µM (inactive) and the GI50 (HOP-18) was > 5000 µM (inactive). For the same compound, the GI50 (HOP-92) was > 5000 µM (inactive), the GI50 (HT-29) was > 5000 µM (inactive) and the GI50 (IGROV-1) was > 5000 µM (inactive). For the same compound, the GI50 (K562) was > 5000 µM (inactive), the GI50 (KM-20L2) was > 5000 µM (inactive) and the GI50 (KM12) was > 5000 µM (inactive). For the same compound, the GI50 (LXFL 529) was > 5000 µM (inactive), the GI50 (M14) was > 5000 µM (inactive) and the GI50 (M19-MEL) was > 5000 µM (inactive). For the same compound, the GI50 (MOLT-4) was > 5000 µM (inactive), the GI50 (Malme-3M) was > 5000 µM (inactive) and the GI50 (NCI-H226) was > 5000 µM (inactive). For the same compound, the GI50 (NCI-H23) was > 5000 µM (inactive), the GI50 (NCI-H460) was > 5000 µM (inactive) and the GI50 (NCI-H522) was > 5000 µM (inactive). The GI50 (OVCAR-3) was > 5000 µM (inactive), the GI50 (OVCAR-4) was > 5000 µM (inactive) and the GI50 (OVCAR-5) was > 5000 µM (inactive). The GI50 (RPMI-8226) was > 5000 µM (inactive), the GI50 (RXF 393) was > 5000 µM (inactive) and the GI50 (SF-268) was > 5000 µM (inactive). The GI50 (SF-295) was > 5000 µM (inactive), the GI50 (SF-539) was > 5000 µM (inactive) and the GI50 (SK-MEL-28) was > 5000 µM (inactive). For the same compound, the GI50 (SK-MEL-2) was > 5000 µM (inactive), the GI50 (SK-MEL-5) was > 5000 µM (inactive) and the GI50 (SK-OV-3) was > 5000 µM (inactive). For the same compound, the GI50 (SN12C) was > 5000 µM (inactive), the GI50 (SNB-75) was > 5000 µM (inactive) and the GI50 (SNB-78) was > 5000 µM (inactive). For the same compound, the GI50 (SR) was > 5000 µM (inactive), the GI50 (SW-620) was > 5000 µM (inactive) and the GI50 (TK-10) was > 5000 µM (inactive). The GI50 (U-251) was > 5000 µM (inactive), the GI50 (UACC-257) was > 5000 µM (inactive) and the GI50 (UACC-62) was > 5000 µM (inactive). For the same compound, the GI50 (UO-31) was > 5000 µM (inactive).
